Results from the supplement of paper PMC10307832.

Key:
Experiment in all cases: relative viability (nuclei count vs DMSO), 5 days (fraction); higher = more cells survive
[1] = compound: C1/C(=C\C2=CC=CS2)/C(=O)/C(=C/C3=CC=CS3)/C1 + CS(=O)(=O)CCNCc1ccc(-c2ccc3ncnc(Nc4ccc(OCc5cccc(F)c5)c(Cl)c4)c3c2)o1 [Lapatinib] (partner 2 µM)
Summary of the method: (§1)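 Five library-drug doses in √10 steps were combined with a fixed anchor-drug dose, or a single drug was given alone, by pin tool to lung cancer cell lines in 1536-well plates the day after seeding. Nuclei were stained and counted after 5 days. Relative viability is the nuclei count in treated wells over that in vehicle wells, taken as the median of duplicate plates.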

[2] = compound: C1=CC(=CC=C1C2=CC(=C(S2)NC(=O)N)C(=O)N)F [TPCA-1] + Cc1nc(Nc2ncc(C(=O)Nc3c(C)cccc3Cl)s2)cc(N2CCN(CCO)CC2)n1 [Dasatinib] (partner 0.075 µM)
Summary of the method: as §1

[3] = compound: C1=CC(=CC=C1C2=CC(=C(S2)NC(=O)N)C(=O)N)F [TPCA-1] + CC(=O)Nc1cccc(-n2c(=O)n(C3CC3)c(=O)c3c(Nc4ccc(I)cc4F)n(C)c(=O)c(C)c32)c1 [Trametinib] (partner 0.02 µM)
Summary of the method: as §1

[4] = compound: C1=CC(=CC=C1C2=CC(=C(S2)NC(=O)N)C(=O)N)F [TPCA-1] + CS(=O)(=O)CCNCc1ccc(-c2ccc3ncnc(Nc4ccc(OCc5cccc(F)c5)c(Cl)c4)c3c2)o1 [Lapatinib] (partner 2 µM)
Summary of the method: as §1

For NCI-H2023, the relative viability ([1]; first compound 0.2 µM) was 0.877, the relative viability ([1]; first compound 0.6325 µM) was 0.87 and the relative viability ([1]; first compound 2 µM) was 0.889. The relative viability ([1]; first compound 6.325 µM) was 0.734, the relative viability ([1]; first compound 20 µM) was 0.67 and the relative viability ([2]; first compound 0.04 µM) was 0.731. It also gave a relative viability ([2]; first compound 0.1265 µM) of 0.521, a relative viability ([2]; first compound 0.4 µM) of 0.527 and a relative viability ([2]; first compound 1.265 µM) of 0.508. The relative viability ([2]; first compound 4 µM) was 0.216, the relative viability ([3]; first compound 0.04 µM) was 0.588 and the relative viability ([3]; first compound 0.1265 µM) was 0.352. For the same cell line, the relative viability ([3]; first compound 0.4 µM) was 0.556, the relative viability ([3]; first compound 1.265 µM) was 0.487 and the relative viability ([3]; first compound 4 µM) was 0.426. It also gave a relative viability ([4]; first compound 0.04 µM) of 1.1, a relative viability ([4]; first compound 0.1265 µM) of 0.78 and a relative viability ([4]; first compound 0.4 µM) of 1.14. For the same cell line, the relative viability ([4]; first compound 1.265 µM) was 0.528 and the relative viability ([4]; first compound 4 µM) was 0.133.
In the case of LC-2-ad, the relative viability ([1]; first compound 0.2 µM) is reported as 0.891, the relative viability ([1]; first compound 0.6325 µM) is reported as 1.03 and the relative viability ([1]; first compound 2 µM) is reported as 0.939. For the same cell line, the relative viability ([1]; first compound 6.325 µM) was 0.747, the relative viability ([1]; first compound 20 µM) was 0.973 and the relative viability ([2]; first compound 0.04 µM) was 0.79. The relative viability ([2]; first compound 0.1265 µM) was 0.417, the relative viability ([2]; first compound 0.4 µM) was 0.544 and the relative viability ([2]; first compound 1.265 µM) was 0.524. For the same cell line, the relative viability ([2]; first compound 4 µM) was 0.212, the relative viability ([3]; first compound 0.04 µM) was 0.946 and the relative viability ([3]; first compound 0.1265 µM) was 0.941. It also gave a relative viability ([3]; first compound 0.4 µM) of 0.958, a relative viability ([3]; first compound 1.265 µM) of 0.968 and a relative viability ([3]; first compound 4 µM) of 0.765. The relative viability ([4]; first compound 0.04 µM) was 0.986, the relative viability ([4]; first compound 0.1265 µM) was 0.933 and the relative viability ([4]; first compound 0.4 µM) was 1.02. For the same cell line, the relative viability ([4]; first compound 1.265 µM) was 0.953 and the relative viability ([4]; first compound 4 µM) was 0.186.
Cell Line NCI-H1666 has a relative viability ([1]; first compound 0.2 µM) of 0.633, a relative viability ([1]; first compound 0.6325 µM) of 0.59 and a relative viability ([1]; first compound 2 µM) of 0.565. For the same cell line, the relative viability ([1]; first compound 6.325 µM) was 0.561, the relative viability ([1]; first compound 20 µM) was 0.614 and the relative viability ([2]; first compound 0.04 µM) was 0.842. For the same cell line, the relative viability ([2]; first compound 0.1265 µM) was 0.829, the relative viability ([2]; first compound 0.4 µM) was 0.828 and the relative viability ([2]; first compound 1.265 µM) was 0.805. It also gave a relative viability ([2]; first compound 4 µM) of 0.677, a relative viability ([3]; first compound 0.04 µM) of 0.838 and a relative viability ([3]; first compound 0.1265 µM) of 0.7. The relative viability ([3]; first compound 0.4 µM) was 0.879, the relative viability ([3]; first compound 1.265 µM) was 0.804 and the relative viability ([3]; first compound 4 µM) was 0.787. The relative viability ([4]; first compound 0.04 µM) was 0.539, the relative viability ([4]; first compound 0.1265 µM) was 0.569 and the relative viability ([4]; first compound 0.4 µM) was 0.865. For the same cell line, the relative viability ([4]; first compound 1.265 µM) was 0.707 and the relative viability ([4]; first compound 4 µM) was 0.631.
201T gave a relative viability ([1]; first compound 0.2 µM) of 1.01, a relative viability ([1]; first compound 0.6325 µM) of 1.01 and a relative viability ([1]; first compound 2 µM) of 1.14. It also gave a relative viability ([1]; first compound 6.325 µM) of 0.979, a relative viability ([1]; first compound 20 µM) of 1.05 and a relative viability ([2]; first compound 0.04 µM) of 0.577. For the same cell line, the relative viability ([2]; first compound 0.1265 µM) was 0.601, the relative viability ([2]; first compound 0.4 µM) was 0.569 and the relative viability ([2]; first compound 1.265 µM) was 0.576. It also gave a relative viability ([2]; first compound 4 µM) of 0.556, a relative viability ([3]; first compound 0.04 µM) of 0.717 and a relative viability ([3]; first compound 0.1265 µM) of 0.729. It also gave a relative viability ([3]; first compound 0.4 µM) of 0.691, a relative viability ([3]; first compound 1.265 µM) of 0.733 and a relative viability ([3]; first compound 4 µM) of 0.751. It also gave a relative viability ([4]; first compound 0.04 µM) of 1.05, a relative viability ([4]; first compound 0.1265 µM) of 1.02 and a relative viability ([4]; first compound 0.4 µM) of 1.01. For the same cell line, the relative viability ([4]; first compound 1.265 µM) was 1.01 and the relative viability ([4]; first compound 4 µM) was 1.05.
Work on NCI-H2009 yielded a relative viability ([1]; first compound 0.2 µM) of 0.882, a relative viability ([1]; first compound 0.6325 µM) of 0.872 and a relative viability ([1]; first compound 2 µM) of 1.02. For the same cell line, the relative viability ([1]; first compound 6.325 µM) was 0.868, the relative viability ([1]; first compound 20 µM) was 0.917 and the relative viability ([2]; first compound 0.04 µM) was 0.395. It also gave a relative viability ([2]; first compound 0.1265 µM) of 0.267, a relative viability ([2]; first compound 0.4 µM) of 0.278 and a relative viability ([2]; first compound 1.265 µM) of 0.223. For the same cell line, the relative viability ([2]; first compound 4 µM) was 0.177, the relative viability ([3]; first compound 0.04 µM) was 0.309 and the relative viability ([3]; first compound 0.1265 µM) was 0.249. For the same cell line, the relative viability ([3]; first compound 0.4 µM) was 0.303, the relative viability ([3]; first compound 1.265 µM) was 0.321 and the relative viability ([3]; first compound 4 µM) was 0.211. For the same cell line, the relative viability ([4]; first compound 0.04 µM) was 1.12, the relative viability ([4]; first compound 0.1265 µM) was 0.886 and the relative viability ([4]; first compound 0.4 µM) was 0.926. The relative viability ([4]; first compound 1.265 µM) was 0.444 and the relative viability ([4]; first compound 4 µM) was 0.294.
NCI-H1395 was tested, and the relative viability ([1]; first compound 0.2 µM) was 1.04, the relative viability ([1]; first compound 0.6325 µM) was 1.13 and the relative viability ([1]; first compound 2 µM) was 1.11. For the same cell line, the relative viability ([1]; first compound 6.325 µM) was 0.886, the relative viability ([1]; first compound 20 µM) was 1.15 and the relative viability ([2]; first compound 0.04 µM) was 0.478. For the same cell line, the relative viability ([2]; first compound 0.1265 µM) was 0.39, the relative viability ([2]; first compound 0.4 µM) was 0.4 and the relative viability ([2]; first compound 1.265 µM) was 0.421. It also gave a relative viability ([2]; first compound 4 µM) of 0.344, a relative viability ([3]; first compound 0.04 µM) of 1.23 and a relative viability ([3]; first compound 0.1265 µM) of 0.939. It also gave a relative viability ([3]; first compound 0.4 µM) of 1.11, a relative viability ([3]; first compound 1.265 µM) of 1.05 and a relative viability ([3]; first compound 4 µM) of 0.884. For the same cell line, the relative viability ([4]; first compound 0.04 µM) was 1.09, the relative viability ([4]; first compound 0.1265 µM) was 1.06 and the relative viability ([4]; first compound 0.4 µM) was 1.02. The relative viability ([4]; first compound 1.265 µM) was 0.935 and the relative viability ([4]; first compound 4 µM) was 0.75.
NCI-H2228 was tested, and the relative viability ([1]; first compound 0.2 µM) was 1.22, the relative viability ([1]; first compound 0.6325 µM) was 1.12 and the relative viability ([1]; first compound 2 µM) was 1.14. It also gave a relative viability ([1]; first compound 6.325 µM) of 0.939, a relative viability ([1]; first compound 20 µM) of 1 and a relative viability ([2]; first compound 0.04 µM) of 0.669. The relative viability ([2]; first compound 0.1265 µM) was 0.491, the relative viability ([2]; first compound 0.4 µM) was 0.521 and the relative viability ([2]; first compound 1.265 µM) was 0.386. The relative viability ([2]; first compound 4 µM) was 0.301, the relative viability ([3]; first compound 0.04 µM) was 0.443 and the relative viability ([3]; first compound 0.1265 µM) was 0.517. The relative viability ([3]; first compound 0.4 µM) was 0.671, the relative viability ([3]; first compound 1.265 µM) was 0.346 and the relative viability ([3]; first compound 4 µM) was 0.155. For the same cell line, the relative viability ([4]; first compound 0.04 µM) was 1.54, the relative viability ([4]; first compound 0.1265 µM) was 0.867 and the relative viability ([4]; first compound 0.4 µM) was 1.32. For the same cell line, the relative viability ([4]; first compound 1.265 µM) was 0.853 and the relative viability ([4]; first compound 4 µM) was 0.537.
LU99A was tested, and the relative viability ([1]; first compound 0.2 µM) was 0.914, the relative viability ([1]; first compound 0.6325 µM) was 0.958 and the relative viability ([1]; first compound 2 µM) was 1.23. The relative viability ([1]; first compound 6.325 µM) was 0.785, the relative viability ([1]; first compound 20 µM) was 0.95 and the relative viability ([2]; first compound 0.04 µM) was 0.509. The relative viability ([2]; first compound 0.1265 µM) was 0.522, the relative viability ([2]; first compound 0.4 µM) was 0.619 and the relative viability ([2]; first compound 1.265 µM) was 0.356. It also gave a relative viability ([2]; first compound 4 µM) of 0.366, a relative viability ([3]; first compound 0.04 µM) of 0.66 and a relative viability ([3]; first compound 0.1265 µM) of 0.487. The relative viability ([3]; first compound 0.4 µM) was 0.553, the relative viability ([3]; first compound 1.265 µM) was 0.466 and the relative viability ([3]; first compound 4 µM) was 0.284. It also gave a relative viability ([4]; first compound 0.04 µM) of 1.02, a relative viability ([4]; first compound 0.1265 µM) of 0.872 and a relative viability ([4]; first compound 0.4 µM) of 1.11. For the same cell line, the relative viability ([4]; first compound 1.265 µM) was 0.81 and the relative viability ([4]; first compound 4 µM) was 0.426.
NCI-H1437 gave a relative viability ([1]; first compound 0.2 µM) of 0.751, a relative viability ([1]; first compound 0.6325 µM) of 0.788 and a relative viability ([1]; first compound 2 µM) of 0.791. For the same cell line, the relative viability ([1]; first compound 6.325 µM) was 0.748, the relative viability ([1]; first compound 20 µM) was 0.692 and the relative viability ([2]; first compound 0.04 µM) was 0.462. It also gave a relative viability ([2]; first compound 0.1265 µM) of 0.368, a relative viability ([2]; first compound 0.4 µM) of 0.565 and a relative viability ([2]; first compound 1.265 µM) of 0.408. For the same cell line, the relative viability ([2]; first compound 4 µM) was 0.325, the relative viability ([3]; first compound 0.04 µM) was 0.581 and the relative viability ([3]; first compound 0.1265 µM) was 0.493. The relative viability ([3]; first compound 0.4 µM) was 0.521, the relative viability ([3]; first compound 1.265 µM) was 0.511 and the relative viability ([3]; first compound 4 µM) was 0.453. It also gave a relative viability ([4]; first compound 0.04 µM) of 0.888, a relative viability ([4]; first compound 0.1265 µM) of 0.764 and a relative viability ([4]; first compound 0.4 µM) of 0.85. It also gave a relative viability ([4]; first compound 1.265 µM) of 0.742 and a relative viability ([4]; first compound 4 µM) of 0.604.
